Measured values reported in patent publication US20070117152A1, “Biosensor” (FUJIFILM Corporation, priority 2005, published 2007).

What was measured:
Carbonic anhydrase = Carbonic anhydrase (Bos taurus, UniProt P00921); assay: Evaluation of binding ability of hydrochlorothiazide on CA-immobilized chip by surface plasmon resonance (Example 1); details: 50 μM in 1×PBS pH 7.4
Description: (§1) The solution in the measurement chip was removed, and the dielectric block was covered with silicone rubber to prepare a cell having an internal volume of 15 μl. The silicone rubber cover was provided with two pores with diameters of 1 mm, and a teflon tube (i.d.: 0.5 mm; o.d.: 1 mm) was allowed to path therethrough to prepare a flow channel system. The chip provided with such flow channel system was mounted on the surface plasmon resonance measurement device of the present invention. Hereafter, liquid exchange was carried out by pouring 500 μl of liquid for 5 seconds.
The flow channel was filled with 70 μl of a mixed solution of 200 mM EDC (N-ethyl-N′-(3-dimethylaminopropyl)carbodiimide hydrochloride) and 50 mM NHS (N-hydroxysuccinimide), and was then allowed to stand for 10 minutes. […] The amount of the immobilized proteins was determined based on changes in signal intensities before and after protein immobilization.
[…] Based on the signal intensity before liquid exchange, changes in the signal intensity were measured at intervals of 0.5 seconds. […] Changes in signal intensities were determined from 5 seconds before the initiation of the exchange to 2 minutes after the exchange.

[1] = target: T1, Bovine Carbonic Anhydrase (Bos taurus, UniProt P00921); assay: Evaluation of binding ability of hydrochlorothiazide on CA-immobilized chip by surface plasmon resonance (Example 2); details: 50 μM in 1×PBS pH 7.4
T1 construct: purchased SIGMA
T1 sequence (P00921 whole entry): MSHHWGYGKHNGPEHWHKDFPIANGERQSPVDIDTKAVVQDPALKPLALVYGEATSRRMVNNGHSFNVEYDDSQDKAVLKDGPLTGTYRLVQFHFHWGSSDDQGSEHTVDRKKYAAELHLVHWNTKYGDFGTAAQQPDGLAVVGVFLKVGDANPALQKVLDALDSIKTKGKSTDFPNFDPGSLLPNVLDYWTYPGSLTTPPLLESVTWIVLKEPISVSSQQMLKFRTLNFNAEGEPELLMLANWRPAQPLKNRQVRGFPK
Description: as §1
The flow channel was filled with 70 μl of a mixed solution of 200 mM EDC (N-ethyl-N′-(3-dimethylaminopropyl)carbodiimide hydrochloride) and 50 mM NHS (N-hydroxysuccinimide), and was then allowed to stand for 10 minutes. After the liquid exchange was carried out twice with 100 μl of Acetate 5.0 buffer (BIAcore), the liquid was exchanged with the acetate 5.0 solution containing Bovine Carbonic Anhydrase (hereinafter referred to as CA) (SIGMA) with the concentration shown in Table 2, and the resultant was allowed to stand for a certain period to immobilize CA. The inside of the chip was exchanged with 1 M ethanolamine solution and was then allowed to stand for 10 minutes. The interior of the chip was exchanged twice with 100 μl of Acetate 5.0 buffer to prepare CA-immobilized chip. The amount of the immobilized proteins was determined based on changes in signal intensities before and after CA immobilization. Also, the period for adding CA solution is changed, and the minimum period necessary to achieve the immobilized CA amount of 3000 RU or more was determined.
The flow channel system of the CA-immobilized chips, the amount of CA immobilized thereto was approximately 3,000 RU, was filled with 1×PBS buffer (pH 7.4). Based on the signal intensity before liquid exchange, changes in the signal intensity were measured at intervals of 0.5 seconds. The content of the flow channel system was exchanged with a hydrochlorothiazide solution (Sigma) (dissolved in 1×PBS (pH 7.4) to result in 50 μM therein). Changes in signal intensities were determined from 5 seconds before the initiation of the exchange to 2 minutes after the exchange.

Carbonic anhydrase, sequence (P00921 whole entry): as above

Hydrochlorothiazide Binding amount (Carbonic anhydrase; Level 1: dextran (branched) chip, carbonic anhydrase immobilized 1500 RU): 5 RU | Hydrochlorothiazide Binding amount (Carbonic anhydrase; Level 5: pullulan (linear) chip, carbonic anhydrase immobilized 2500 RU): 10 RU | Hydrochlorothiazide Binding amount ([1]; Level 2: dextran 15% by weight chip, CA 200 μg/ml): −15 RU | Hydrochlorothiazide Binding amount ([1]; Level 3: dextran 25% by weight chip, CA 20 μg/ml): 2 RU | Hydrochlorothiazide Binding amount ([1]; Level 4: dextran 25% by weight chip, CA 200 μg/ml): −30 RU | Hydrochlorothiazide Binding amount ([1]; Level 5: amylose 10% by weight chip, CA 20 μg/ml): 17 RU | Hydrochlorothiazide Binding amount ([1]; Level 6: amylose 10% by weight chip, CA 200 μg/ml): 11 RU | Hydrochlorothiazide Binding amount ([1]; Level 7: amylose 15% by weight chip, CA 20 μg/ml): 15 RU | Hydrochlorothiazide Binding amount ([1]; Level 8: amylose 15% by weight chip, CA 200 μg/ml): 10 RU
SMILES: NS(=O)(=O)c1cc2c(cc1Cl)NCNS2(=O)=O [Hydrochlorothiazide, hydrochlorothiazide]
